Where two headings read alike, the source gives them in different places.
Experiments:
ER in T47D cells = ER in T47D cells (Homo sapiens (Human), UniProt P03372); test: In-cell western (ICW) ER degradation assay in T47D cells (Compounds A1-A70); assay type: cell-based; conditions: T47D cells, 16 hrs treatment; for DC50: ER degradation, 0.02 to 300 nM; for Dmax: maximal ER degradation, read-out: T47D ICW Dmax (%)
Method: (§1) ERa degradative activity of compounds can be assessed in MCF-7 and T47D Cells. MCF-7 and T47D cell are seeded and are subsequently treated with the compounds at certain concentrations (e.g., 0.02 to 300 nM). DMSO can be used as vehicle control. Cells are fixed and are blocked with Intercept (PBS) Blocking Buffer (e.g., Li—COR, Odyssey Blocking Buffer), and are stained with ER (e.g., 1:500, Cell signaling) primary antibody for overnight at cold room. Secondary Antibody (e.g., IRDye 800CW Goat anti-Rabbit IgG) and CellTag 700 Stain are added in Intercept (PBS) Blocking Buffer. Finally, cell plate is placed in incubator to dry. Image and signal are captured on Odyssey® DLx Imaging System.
(§2) Day 3: After 16 hrs of compounds treatment, cells were fixed by 4% PFA and permeabilized with elution buffer (0.1% Triton X-100 in 1% PBS Solution). Subsequently, cells were blocked with Intercept (PBS) Blocking Buffer (Li—COR, Odyssey Blocking Buffer), and were stained with ER (1:500, Cell signaling) primary antibody for overnight at cold room.
(§3) Day 4: Remove the buffer, add IRDye 800CW Goat anti-Rabbit IgG Secondary Antibody (1:2000) and CellTag 700 Stain (1:500) in Intercept (PBS) Blocking Buffer. Finally, cell plate is placed in incubator to dry. Image and signal were captured on Odyssey® DLx Imaging System.

CRBN/DDB1 = CRBN/DDB1 (Homo sapiens (Human), UniProt Q96SW2); assay type: binding; conditions: His tagged CRBN+DDB-DLS7+CXU4, Cy5-labeled Thalidomide probe, one hour incubation; read-out: CRBN HTRF IC50
Method: The binding potency was determined using H-TRF assay technology (Perkin Elmer). Compounds were serially diluted in DMSO and 0.2 μL volume was transferred to white 384-well plate.

ER in MCF-7 cells = ER in MCF-7 cells (Homo sapiens (Human), UniProt P03372); test: In-cell western (ICW) ER degradation assay in MCF-7 cells (Compounds A1-A70); assay type: cell-based; conditions: MCF-7 cells, 16 hrs treatment; for DC50: ER degradation, 0.02 to 300 nM, read-out: MCF7 ICW DC50; for Dmax: MCF7, maximal ER degradation, read-out: MCF7 ICW Dmax (%)
Method: as §1, §2, §3

Sequence of ER in MCF-7 cells (P03372 whole entry): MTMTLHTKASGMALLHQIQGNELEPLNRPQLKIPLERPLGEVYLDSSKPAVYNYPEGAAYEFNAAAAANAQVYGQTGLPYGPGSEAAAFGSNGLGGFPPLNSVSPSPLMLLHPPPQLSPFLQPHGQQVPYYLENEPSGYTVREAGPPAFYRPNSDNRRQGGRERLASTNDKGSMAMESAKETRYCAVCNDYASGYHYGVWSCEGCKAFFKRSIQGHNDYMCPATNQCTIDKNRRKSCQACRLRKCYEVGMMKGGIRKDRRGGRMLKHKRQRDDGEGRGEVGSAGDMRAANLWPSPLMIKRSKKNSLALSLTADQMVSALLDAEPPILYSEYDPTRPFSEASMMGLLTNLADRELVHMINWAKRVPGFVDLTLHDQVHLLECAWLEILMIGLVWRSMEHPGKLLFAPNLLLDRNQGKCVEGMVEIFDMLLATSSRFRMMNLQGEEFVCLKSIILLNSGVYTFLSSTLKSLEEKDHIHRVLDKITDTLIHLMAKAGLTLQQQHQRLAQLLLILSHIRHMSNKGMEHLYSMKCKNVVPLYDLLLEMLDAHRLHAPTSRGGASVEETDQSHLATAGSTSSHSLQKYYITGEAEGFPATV
Sequence of ER in T47D cells (P03372 whole entry): as above
Sequence of CRBN/DDB1 (Q96SW2 whole entry): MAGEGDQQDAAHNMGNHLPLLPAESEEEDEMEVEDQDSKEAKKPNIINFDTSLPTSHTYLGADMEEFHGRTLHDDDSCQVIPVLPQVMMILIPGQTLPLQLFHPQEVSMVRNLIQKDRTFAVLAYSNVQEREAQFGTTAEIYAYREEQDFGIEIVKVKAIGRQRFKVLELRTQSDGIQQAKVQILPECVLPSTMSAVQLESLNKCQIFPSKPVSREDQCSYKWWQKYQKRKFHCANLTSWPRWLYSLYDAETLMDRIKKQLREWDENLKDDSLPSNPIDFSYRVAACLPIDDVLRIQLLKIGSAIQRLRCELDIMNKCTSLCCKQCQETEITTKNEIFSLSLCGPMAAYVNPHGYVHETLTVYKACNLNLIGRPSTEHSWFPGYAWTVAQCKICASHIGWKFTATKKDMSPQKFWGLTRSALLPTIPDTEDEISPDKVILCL
Sequence of CRBN/DDB1 (Q16531 whole entry partner): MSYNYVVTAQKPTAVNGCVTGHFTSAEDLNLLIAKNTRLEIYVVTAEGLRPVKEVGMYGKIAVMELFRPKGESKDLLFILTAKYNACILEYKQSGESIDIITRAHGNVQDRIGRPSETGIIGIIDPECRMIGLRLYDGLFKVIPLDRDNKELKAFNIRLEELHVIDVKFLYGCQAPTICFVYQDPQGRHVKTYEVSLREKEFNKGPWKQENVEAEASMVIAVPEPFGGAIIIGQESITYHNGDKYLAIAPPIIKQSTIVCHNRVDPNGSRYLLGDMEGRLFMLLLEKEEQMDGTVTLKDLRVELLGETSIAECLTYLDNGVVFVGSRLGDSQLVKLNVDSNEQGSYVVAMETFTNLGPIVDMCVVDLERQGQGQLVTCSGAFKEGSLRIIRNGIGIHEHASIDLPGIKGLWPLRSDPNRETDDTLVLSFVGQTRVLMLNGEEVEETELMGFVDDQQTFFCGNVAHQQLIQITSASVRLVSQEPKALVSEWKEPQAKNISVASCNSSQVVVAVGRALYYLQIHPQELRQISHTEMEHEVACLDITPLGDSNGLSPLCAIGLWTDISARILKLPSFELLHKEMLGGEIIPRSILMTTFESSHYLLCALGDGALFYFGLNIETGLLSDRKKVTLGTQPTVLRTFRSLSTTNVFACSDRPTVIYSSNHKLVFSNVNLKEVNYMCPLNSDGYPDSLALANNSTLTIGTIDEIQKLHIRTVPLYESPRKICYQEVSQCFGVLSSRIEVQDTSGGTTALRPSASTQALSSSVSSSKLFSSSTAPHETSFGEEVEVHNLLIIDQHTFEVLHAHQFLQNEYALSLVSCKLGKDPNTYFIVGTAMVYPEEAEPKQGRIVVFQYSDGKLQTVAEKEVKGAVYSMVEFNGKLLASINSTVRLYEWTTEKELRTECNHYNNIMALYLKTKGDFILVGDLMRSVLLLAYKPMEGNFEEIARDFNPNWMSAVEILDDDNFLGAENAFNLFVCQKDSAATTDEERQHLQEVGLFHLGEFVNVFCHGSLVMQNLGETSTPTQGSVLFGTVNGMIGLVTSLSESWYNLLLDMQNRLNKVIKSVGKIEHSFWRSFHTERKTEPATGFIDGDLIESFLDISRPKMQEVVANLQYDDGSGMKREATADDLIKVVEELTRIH

Row | Structure (SMILES) | DC50 (ER in T47D cells) | Dmax (ER in T47D cells; T47D) | IC50 (CRBN/DDB1) | DC50 (ER in MCF-7 cells) | Dmax (ER in MCF-7 cells) | Dmax (ER in T47D cells)
1 | C[C@@H]1Cc2c([nH]c3ccccc23)[C@@H](c2cnc(N3CCO[C@H](CN4CCN5c6cc7c(cc6OC[C@@H]5C4)C(=O)N(C4CCC(=O)NC4=O)C7)C3)nc2)N1CC(C)(C)F (stereo partly drawn) [Compound A22, 3-((S)-3-(((R)-4-(5-((1R,3R)-2-(2-fluoro-2-methylpropyl)-3-methyl-2,3,4,9-tetrahydro-1H-pyrido[3,4-b]indol-1-yl)pyrimidin-2-yl)morpholin-2-yl)methyl)-8-oxo-1,2,3,4,4a,5,8,10-octahydro-9H-pyrazino[1′,2′:4,5][1,4]oxazino[2,3-f]isoindol-9-yl)piperidine-2,6-dione] | < 1 nM | 25 to 50% | 50 to 500 nM | 1 to 10 nM | 25 to 50% | 
2 | C[C@@H]1Cc2c([nH]c3ccccc23)[C@@H](c2ccc(N3CCC(CN4CCN5c6ccc7c(c6OC[C@@H]5C4)CN([C@H]4CCC(=O)NC4=O)C7=O)CC3)nc2)N1CC(F)F [Compound A23, (S)-3-((S)-7-((1-(5-((1R,3R)-2-(2,2-difluoroethyl)-3-methyl-2,3,4,9-tetrahydro-1H-pyrido[3,4-b]indol-1-yl)pyridin-2-yl)piperidin-4-yl)methyl)-1-oxo-1,3,5,5a,6,7,8,9-octahydro-2H-pyrazino[1′,2′:4,5][1,4]oxazino[2,3-e]isoindol-2-yl)piperidine-2,6-dione] | 1 to 10 nM | 50 to 75% | 50 to 500 nM | 1 to 10 nM | 25 to 50% | 
3 | C[C@@H]1Cc2c([nH]c3ccccc23)[C@@H](c2cnc([C@H]3CC[C@H](C(=O)N4CCC(N5Cc6cc7c(cc6C5)C(=O)N(C5CCC(=O)NC5=O)C7)CC4)CC3)nc2)N1CC(F)F (stereo partly drawn) [Compound A25, 3-(6-(1-((1R,4r)-4-(5-((1R,3R)-2-(2,2-difluoroethyl)-3-methyl-2,3,4,9-tetrahydro-1H-pyrido[3,4-b]indol-1-yl)pyrimidin-2-yl)cyclohexane-1-carbonyl)piperidin-4-yl)-1-oxo-3,5,6,7-tetrahydropyrrolo[3,4-f]isoindol-2(1H)-yl)piperidine-2,6-dione] | < 1 nM | 25 to 50% | < 50 nM | 10 to 100 nM | < 25% | 
4 | COc1cc(N2CCC3(CCN(C(=O)CN4Cc5cc6c(cc5C4)C(=O)N(C4CCC(=O)NC4=O)C6=O)CC3)CC2)ccc1[C@@H]1c2[nH]c3ccccc3c2C[C@@H](C)N1CC(F)F (stereo partly drawn) [Compound A27, 6-(2-(9-(4-((1R,3R)-2-(2,2-difluoroethyl)-3-methyl-2,3,4,9-tetrahydro-1H-pyrido[3,4-b]indol-1-yl)-3-methoxyphenyl)-3,9-diazaspiro[5.5]undecan-3-yl)-2-oxoethyl)-2-(2,6-dioxopiperidin-3-yl)-6,7-dihydropyrrolo[3,4-f]isoindole-1,3(2H,5H)-dione] | < 1 nM | > 75% | 500 to 5000 nM | < 1 nM | 50 to 75% | 
5 | COc1cc(N2CCC(CN3CCN4c5cc(F)c(C(=O)N[C@H]6CCC(=O)NC6=O)cc5OC[C@@H]4C3)CC2)ccc1[C@@H]1c2[nH]c3ccccc3c2C[C@@H](C)N1CC(F)F [Compound A30, (S)-3-((1-(4-((1R,3R)-2-(2,2-difluoroethyl)-3-methyl-2,3,4,9-tetrahydro-1H-pyrido[3,4-b]indol-1-yl)-3-methoxyphenyl)piperidin-4-yl)methyl)-N-((S)-2,6-dioxopiperidin-3-yl)-9-fluoro-1,2,3,4,4a,5-hexahydrobenzo[b]pyrazino[1,2-d][1,4]oxazine-8-carboxamide] | 1 to 10 nM | 50 to 75% | 500 to 5000 nM | 1 to 10 nM | 25 to 50% | 
6 | COc1cc(N2CCC(CN3CCN(c4ccc(NC5CCC(=O)NC5=O)cc4F)CC3)CC2)ccc1[C@@H]1c2[nH]c3ccccc3c2C[C@@H](C)N1CC(F)F (stereo partly drawn) [Compound A31, 3-((4-(4-((1-(4-((1R,3R)-2-(2,2-difluoroethyl)-3-methyl-2,3,4,9-tetrahydro-1H-pyrido[3,4-b]indol-1-yl)-3-methoxyphenyl)piperidin-4-yl)methyl)piperazin-1-yl)-3-fluorophenyl)amino)piperidine-2,6-dione] | 1 to 10 nM | 25 to 50% | < 50 nM | < 1 nM | 25 to 50% | 
7 | C[C@@H]1Cc2c([nH]c3ccccc23)[C@@H](c2cnc(N3CCC4(CC3)CC(CN3CCC(c5ccc6c(c5)n(C)c(=O)n6C5CCC(=O)NC5=O)CC3)C4)nc2)N1CC(F)F (stereo partly drawn) [Compound A32, 3-(5-(1-((7-(5-((1R,3R)-2-(2,2-difluoroethyl)-3-methyl-2,3,4,9-tetrahydro-1H-pyrido[3,4-b]indol-1-yl)pyrimidin-2-yl)-7-azaspiro[3.5]nonan-2-yl)methyl)piperidin-4-yl)-3-methyl-2-oxo-2,3-dihydro-1H-benzo[d]imidazol-1-yl)piperidine-2,6-dione] | < 1 nM | 50 to 75% | 50 to 500 nM | < 1 nM | 25 to 50% | 
8 | COc1cc(N2CCC(CN3CCC4(CC3)COc3cc5c(cc34)CN(C3CCC(=O)NC3=O)C5=O)CC2)ccc1[C@@H]1c2[nH]c3ccccc3c2C[C@@H](C)N1CC(F)F (stereo partly drawn) [Compound A33, 3-(1′-((1-(4-((1R,3R)-2-(2,2-difluoroethyl)-3-methyl-2,3,4,9-tetrahydro-1H-pyrido[3,4-b]indol-1-yl)-3-methoxyphenyl)piperidin-4-yl)methyl)-7-oxo-5,7-dihydro-2H,6H-spiro[furo[2,3-f]isoindole-3,4′-piperidin]-6-yl) piperidine-2,6-dione] | < 1 nM |  | 50 to 500 nM | 1 to 10 nM | < 25% | 50 to 75%
9 | COc1cc(N2CCC(CN3CCC(c4ccc(N[C@H]5CCC(=O)NC5=O)cc4F)CC3)CC2)ccc1[C@@H]1c2[nH]c3ccccc3c2C[C@@H](C)N1CC(F)F [Compound A34, (S)-3-((4-(1-((1-(4-((1R,3R)-2-(2,2-difluoroethyl)-3-methyl-2,3,4,9-tetrahydro-1H-pyrido[3,4-b]indol-1-yl)-3-methoxyphenyl)piperidin-4-yl)methyl)piperidin-4-yl)-3-fluorophenyl)amino)piperidine-2,6-dione] | < 1 nM | 25 to 50% | < 50 nM | > 100 nM | < 25% | 
10 | COc1cc(N2CCC(CN3CCC(c4ccc5c(c4)n(C)c(=O)n5C4CCC(=O)NC4=O)CC3)CC2)ccc1[C@@H]1c2[nH]c3ccccc3c2C[C@@H](C)N1CC(F)F (stereo partly drawn) [Compound A35, 3-(5-(1-((1-(4-((1R,3R)-2-(2,2-difluoroethyl)-3-methyl-2,3,4,9-tetrahydro-1H-pyrido[3,4-b]indol-1-yl)-3-methoxyphenyl)piperidin-4-yl)methyl)piperidin-4-yl)-3-methyl-2-oxo-2,3-dihydro-1H-benzo[d]imidazol-1-yl)piperidine-2,6-dione] | < 1 nM | 50 to 75% | 50 to 500 nM | 10 to 100 nM | 25 to 50% | 
11 | COc1cc(N2CCC(CN3CCN4c5ccc6c(c5OC[C@H]4C3)CN([C@H]3CCC(=O)NC3=O)C6=O)CC2)ccc1[C@H]1c2[nH]c3ccccc3c2C[C@@H](C)N1CC(F)F [Compound A39, (S)-3-((R)-7-((1-(4-((1S,3R)-2-(2,2-difluoroethyl)-3-methyl-2,3,4,9-tetrahydro-1H-pyrido[3,4-b]indol-1-yl)-3-methoxyphenyl)piperidin-4-yl)methyl)-1-oxo-1,3,5,5a,6,7,8,9-octahydro-2H-pyrazino[1′,2′:4,5][1,4]oxazino[2,3-e]isoindol-2-yl)piperidine-2,6-dione] | < 1 nM | 50 to 75% | 50 to 500 nM | < 1 nM | 50 to 75% | 
12 | COc1cc(N2CCC(CN3CCN4c5ccc6c(c5OC[C@@H]4C3)CN([C@@H]3CCC(=O)NC3=O)C6=O)CC2)ccc1[C@@H]1c2[nH]c3ccccc3c2C[C@@H](C)N1CC(F)F [Compound A42, (R)-3-((S)-7-((1-(4-((1R,3R)-2-(2,2-difluoroethyl)-3-methyl-2,3,4,9-tetrahydro-1H-pyrido[3,4-b]indol-1-yl)-3-methoxyphenyl)piperidin-4-yl)methyl)-1-oxo-1,3,5,5a,6,7,8,9-octahydro-2H-pyrazino[1′,2′:4,5][1,4]oxazino[2,3-e]isoindol-2-yl)piperidine-2,6-dione] | < 1 nM | 50 to 75% | 500 to 5000 nM | < 1 nM | 50 to 75% | 

— patent US20260007681A1, “INDOLE DERIVATIVES AS ESTROGEN RECEPTOR DEGRADERS” (REGENTS OF THE UNIVERSITY OF MICHIGAN, priority 2022, published 2026)
